Test results from patent publication US11459323B2, “Monocyclic β-lactam compound for treating bacterial infection” (MEDSHINE DISCOVERY INC., priority 2018, dated 2022).
Values after ≈ are worked out from the molar mass of the structure shown. Like-named read-outs stand apart in the source and are kept apart here.

Columns and labels:
Assay in all cases: MIC on clinically isolated bacteria
Assay type in all cases: cell-based
[1] = tested on: Pseudomonas aeruginosa W46; details: read-out: MIC
Text: (§1) Twenty-five strains of clinically isolated Acinetobacter baumannii and twenty-seven strains of Pseudomonas aeruginosa were respectively selected and used to determine the minimum inhibitory concentration (MIC) of the compounds by micro-liquid dilution method according to the Institute of Clinical and Laboratory Standard (CLSI) requirements.

[2] = tested on: Acinetobacter baumannii C328; details: Acinetobacter baumannii C328; read-out: Minimum Inhibitory Concentration (MIC)
Text: as §1

[3] = tested on: Acinetobacter baumannii C390; details: Acinetobacter baumannii C390; read-out: Minimum Inhibitory Concentration (MIC)
Text: as §1

[4] = tested on: Pseudomonas aeruginosa C754; details: read-out: MIC
Text: as §1

[5] = tested on: Pseudomonas aeruginosa C763; details: read-out: MIC
Text: as §1

[6] = tested on: Pseudomonas aeruginosa W21; details: read-out: MIC
Text: as §1

[7] = tested on: Acinetobacter baumannii C395; details: Acinetobacter baumannii C395; read-out: Minimum Inhibitory Concentration (MIC)
Text: as §1

[8] = tested on: Pseudomonas aeruginosa C755; details: read-out: MIC
Text: as §1

[9] = tested on: Acinetobacter baumannii C281; details: Acinetobacter baumannii C281; read-out: Minimum Inhibitory Concentration (MIC)
Text: as §1

[10] = tested on: Acinetobacter baumannii C401; details: Acinetobacter baumannii C401; read-out: Minimum Inhibitory Concentration (MIC)
Text: as §1

[11] = tested on: Pseudomonas aeruginosa W35; details: read-out: MIC
Text: as §1

[12] = tested on: Acinetobacter baumannii C241; details: Acinetobacter baumannii C241; read-out: Minimum Inhibitory Concentration (MIC)
Text: as §1

[13] = tested on: Acinetobacter baumannii C361; details: Acinetobacter baumannii C361; read-out: Minimum Inhibitory Concentration (MIC)
Text: as §1

[14] = tested on: Acinetobacter baumannii C279; details: Acinetobacter baumannii C279; read-out: Minimum Inhibitory Concentration (MIC)
Text: as §1

[15] = tested on: Pseudomonas aeruginosa W23; details: read-out: MIC
Text: as §1

[16] = tested on: Pseudomonas aeruginosa C745; details: read-out: MIC
Text: as §1

[17] = tested on: Aeruginosa ATCC27853; details: Pseudomonas aeruginosa; Aeruginosa ATCC27853; read-out: MIC
Text: as §1

[18] = tested on: Pseudomonas aeruginosa W19; details: read-out: MIC
Text: as §1

[19] = tested on: Acinetobacter baumannii C332; details: Acinetobacter baumannii C332; read-out: Minimum Inhibitory Concentration (MIC)
Text: as §1

[20] = tested on: Pseudomonas aeruginosa C762
Text: as §1

[21] = tested on: Pseudomonas aeruginosa M1; details: read-out: MIC
Text: as §1

[22] = tested on: Acinetobacter baumannii C357; details: Acinetobacter baumannii C357; read-out: Minimum Inhibitory Concentration (MIC)
Text: as §1

[23] = tested on: Acinetobacter baumannii C319; details: Acinetobacter baumannii C319; read-out: Minimum Inhibitory Concentration (MIC)
Text: as §1

[24] = tested on: Pseudomonas aeruginosa W9; details: read-out: MIC
Text: as §1

[25] = tested on: Acinetobacter baumannii C402; details: Acinetobacter baumannii C402; read-out: Minimum Inhibitory Concentration (MIC)
Text: as §1

[26] = tested on: Acinetobacter baumannii C427; details: Acinetobacter baumannii C427; read-out: Minimum Inhibitory Concentration (MIC)
Text: as §1

[27] = tested on: Acinetobacter baumannii C251; details: Acinetobacter baumannii C251; read-out: Minimum Inhibitory Concentration (MIC)
Text: as §1

[28] = tested on: Pseudomonas aeruginosa W20; details: read-out: MIC
Text: as §1

[29] = tested on: Acinetobacter baumannii C333; details: Acinetobacter baumannii C333; read-out: Minimum Inhibitory Concentration (MIC)
Text: as §1

[30] = tested on: Acinetobacter baumannii C181; details: Acinetobacter baumannii C181; read-out: Minimum Inhibitory Concentration (MIC)
Text: as §1

[31] = tested on: Acinetobacter baumannii C313; details: Acinetobacter baumannii C313; read-out: Minimum Inhibitory Concentration (MIC)
Text: as §1

[32] = tested on: Pseudomonas aeruginosa W32; details: read-out: MIC
Text: as §1

[33] = tested on: Pseudomonas aeruginosa W4; details: read-out: MIC
Text: as §1

[34] = tested on: Pseudomonas aeruginosa W13; details: read-out: MIC
Text: as §1

[35] = tested on: Pseudomonas aeruginosa C761; details: read-out: MIC
Text: as §1

[36] = tested on: Acinetobacter baumannii C283; details: Acinetobacter baumannii C283; read-out: Minimum Inhibitory Concentration (MIC)
Text: as §1

[37] = tested on: Acinetobacter baumannii C394; details: Acinetobacter baumannii C394; read-out: Minimum Inhibitory Concentration (MIC)
Text: as §1

[38] = tested on: Acinetobacter baumannii C408; details: Acinetobacter baumannii C408; read-out: Minimum Inhibitory Concentration (MIC)
Text: as §1

[39] = tested on: Acinetobacter baumannii C270; details: Acinetobacter baumannii C270; read-out: Minimum Inhibitory Concentration (MIC)
Text: as §1

[40] = tested on: Pseudomonas aeruginosa W1; details: read-out: MIC
Text: as §1

SMILES | MIC [1] | MIC [2] | MIC [3] | MIC [4] | MIC [5] | MIC [6] | MIC [7] | MIC [8] | MIC [9] | MIC [10] | MIC [11] | MIC [12] | MIC [13] | MIC [14] | MIC [15] | MIC [16] | MIC [17] | MIC [18] | MIC [19] | MIC [21] | also measured
C[C@H]1[C@H](NC(=O)/C(=N\OC(C)(C)C(=O)O)c2csc(N)n2)C(=O)N1S(=O)(=O)O [Aztreonam, reference compound] | 16 µg/mL (≈ 36.7 µM) | 64 µg/mL (≈ 147 µM) | 64 µg/mL (≈ 147 µM) | 4 µg/mL (≈ 9.19 µM) | 32 µg/mL (≈ 73.5 µM) | 16 µg/mL (≈ 36.7 µM) | 32 µg/mL (≈ 73.5 µM) | 4 µg/mL (≈ 9.19 µM) | 64 µg/mL (≈ 147 µM) | 32 µg/mL (≈ 73.5 µM) | 2 µg/mL (≈ 4.59 µM) | 128 µg/mL (≈ 294 µM) | 32 µg/mL (≈ 73.5 µM) | 64 µg/mL (≈ 147 µM) | 16 µg/mL (≈ 36.7 µM) | 32 µg/mL (≈ 73.5 µM) | 2 µg/mL (≈ 4.59 µM) | 16 µg/mL (≈ 36.7 µM) | 64 µg/mL (≈ 147 µM) | 8 µg/mL (≈ 18.4 µM) | MIC [20]: 128 µg/mL (≈ 294 µM); MIC [22]: 32 µg/mL (≈ 73.5 µM); MIC [23]: 64 µg/mL (≈ 147 µM); MIC [24]: 32 µg/mL (≈ 73.5 µM); MIC [25]: 32 µg/mL (≈ 73.5 µM); MIC [26]: 64 µg/mL (≈ 147 µM); MIC [27]: 32 µg/mL (≈ 73.5 µM); MIC [28]: 32 µg/mL (≈ 73.5 µM); MIC [29]: 64 µg/mL (≈ 147 µM); MIC [30]: 64 µg/mL (≈ 147 µM); MIC [31]: 64 µg/mL (≈ 147 µM); MIC [32]: 32 µg/mL (≈ 73.5 µM); MIC [33]: 4 µg/mL (≈ 9.19 µM); MIC [34]: 16 µg/mL (≈ 36.7 µM); MIC [35]: 8 µg/mL (≈ 18.4 µM); MIC [36]: 64 µg/mL (≈ 147 µM); MIC [37]: 64 µg/mL (≈ 147 µM); MIC [38]: 32 µg/mL (≈ 73.5 µM); MIC [39]: 64 µg/mL (≈ 147 µM); MIC [40]: 32 µg/mL (≈ 73.5 µM)
CC1(C)[C@H](NC(=O)/C(=N\O[C@@H](COc2ccc3c(c2)CN(C(=N)NCCCCN)C3)C(=O)O)c2csc(N)n2)C(=O)N1OS(=O)(=O)O [Compound 36] | 0.25 µg/mL (≈ 0.358 µM) | 2 µg/mL (≈ 2.87 µM) | 2 µg/mL (≈ 2.87 µM) | 0.25 µg/mL (≈ 0.358 µM) | 4 µg/mL (≈ 5.73 µM) | 0.25 µg/mL (≈ 0.358 µM) | 2 µg/mL (≈ 2.87 µM) | 0.25 µg/mL (≈ 0.358 µM) | 2 µg/mL (≈ 2.87 µM) | 1 µg/mL (≈ 1.43 µM) | 0.125 µg/mL (≈ 0.179 µM) | 2 µg/mL (≈ 2.87 µM) | 2 µg/mL (≈ 2.87 µM) | 2 µg/mL (≈ 2.87 µM) | 0.25 µg/mL (≈ 0.358 µM) | 8 µg/mL (≈ 11.5 µM) | 0.25 µg/mL (≈ 0.358 µM) | 0.25 µg/mL (≈ 0.358 µM) | 2 µg/mL (≈ 2.87 µM) | 0.5 µg/mL (≈ 0.717 µM) | MIC ([20]; read-out: MIC): 8 µg/mL (≈ 11.5 µM); MIC [22]: 2 µg/mL (≈ 2.87 µM); MIC [23]: 2 µg/mL (≈ 2.87 µM); MIC [24]: 0.5 µg/mL (≈ 0.717 µM); MIC [25]: 2 µg/mL (≈ 2.87 µM); MIC [26]: 2 µg/mL (≈ 2.87 µM); MIC [27]: 16 µg/mL (≈ 22.9 µM); MIC [28]: 0.5 µg/mL (≈ 0.717 µM); MIC [29]: 2 µg/mL (≈ 2.87 µM); MIC [30]: 2 µg/mL (≈ 2.87 µM); MIC [31]: 2 µg/mL (≈ 2.87 µM); MIC [32]: 1 µg/mL (≈ 1.43 µM); MIC [33]: 1 µg/mL (≈ 1.43 µM); MIC [34]: 0.25 µg/mL (≈ 0.358 µM); MIC [35]: 0.25 µg/mL (≈ 0.358 µM); MIC [36]: 2 µg/mL (≈ 2.87 µM); MIC [37]: 2 µg/mL (≈ 2.87 µM); MIC [38]: 2 µg/mL (≈ 2.87 µM); MIC [39]: 2 µg/mL (≈ 2.87 µM); MIC [40]: 0.5 µg/mL (≈ 0.717 µM)
